From patent US20080201790A1, “Method and product for regulating cell responsiveness to external signals” (priority 1993, published 2008)

Experiments:
[1] = system: L929 cells; experiment: Neutral red cell viability assay of L929 cells treated with TNFα and/or bFGF; type: cell-based, murine
Description: In panel A cells were treated with the indicated concentrations of TNFα for 15 hours and were assayed for uptake of neutral red. In panel B cells were untreated (solid bars), treated with 0.5 ng/ml bFGF (dotted bars) or 5.0 ng/ml bFGF (hatched bars) and the indicated concentrations of TNFα for 18 hours. Cell viability was assessed by neutral red assay.
In panel A serum starved L929 cells were untreated or treated for 1 hour at 37° C. with the MEK-1 inhibitor (PD) and then unstimulated or stimulated with bFGF. MAPK activity was measured. In panel B L929 cells were untreated or treated for 1 hour at 37° C. with PD and then were untreated or treated with TNFα alone or in combination with bFGF for 18 hours. Cell viability was assessed by neutral red assay.
Cell lines and culture. L929 cells (ATCC CCL1 were maintained in Dulbecco's modified Eagle's medium with 5% newborn calf serum and 5% bovine calf serum (BCS) supplemented with 100 ug/ml streptomycin and 100 U/ml penicillin. The cells were grown in 10 cm dishes at 37° C. in 7.5% CO2. Cells were made quiescent where indicated by incubation in Dulbecco's modified Eagle's medium and 0.1% bovine serum albumin for 24 h. Recombinant murine TNFα and recombinant human bFGF (147aa) were from R&D Systems, Minneapolis, Minn. Cells were pretreated where indicated with the MEK-1 inhibitor PD#098059 (Parke-Davis Pharmaceutical Corp. Ann Arbor, Mich.) for 1 h at 37° C. Cells were stimulated by incubation with the indicated cytokine or growth factor for various times at 37° C. Stimulation was stopped by rinsing the plates twice with ice cold phosphate buffered saline (PBS) and lysing the cells in the appropriate lysis buffer. Cells were scraped from the plates and nuclei were pelleted for 10 min at 14,000 RPM in a microcentrifuge. JNK assay. JNK activity was measured using a solid state kinase assay in which glutathione S-transferase-c-Jun (1-79) (GST-JUN) cound to glutathione-Sepharose 4B beads was used to affinity purify JNK and then JNK activity was measured in an in vitro kinase assay using the sepharose bound GST-Jun as a substrate (Hibi, M., et al. (1993) Genes & Development 7:2135-2148). Stimulated or unstimulated cells were lysed in 0.5% Nonidet P-40, 20 mM HEPES pH 7.2, 100 mM NaCl, 2 mM dithiothreitol, 1 mM EDTA, 1.0 mM phenylmethylsulfonylfluoride, 1 μg/ml aprotinin and the nuclei pelleted. Lysates were normalized for protein content. JNK was affinity purified from 50-100 μg of cell lysate by the addition of 10 ul of GST-Jun sepharose slurry (2 μg GST-Jun). Binding to GST-Jun efficiently isolates the two major forms of JNK (p45 and p55) and under the conditions used JNK isolation was linear for 10-250 μg of cell lysate. The lysates were rotated at 4° C. for 1-3 h. Beads were washed twice in lysis buffer and then twice in PAN (10 mM PIPES, pH 7.0, 100 mM NaCl, 21 μg/ml aprotinin). Kinase reactions were carried out at 30° C. for 15 min in 20 mM Hepes pH 7.2, 20 mM β-glycerophosphate, 10 mM p-nitrophenyl phosphate, 10 mM MgCl2, 1 mM dithiothreitol, 50 μm sodium vanadate, 10 μCi γ^32P-ATP 4300 Ci/mmole. The kinase reaction was linear from 0-30 min. MAPK Assay MAPK activity was measured exactly as described previously (Gardner, A. M., et al. (1994) Meth. Enzymol. 238:258-270) with the exception that MonoQ FPLC fractionation was replaced by step elution from a DEAE-Sephacel column using 0.5 M NaCl in loading buffer. The eluate was assayed in triplicate using the epidermal growth factor receptor 662-681 peptide (EGFR662-681) as a selective substrate for MAPK activity (Heasley, L. E., et al. (1994) American Journal of Physiology (Renal Fluid Electrolyte Physiol. 36) 267:F366-F373). […]

[2] = system: MEKK1; experiment: Cellular localization of MEKK1 in Swiss 3T3 cells, antibody staining; type: cell-based; settings: serum starved Swiss 3T3 cells, 10 minutes
Text: (§1) Cells were fixed and stained with an antibody specifically recognizing either MEKK1 or MEKK2. Secondary FITC-conjugated anti-rabbit IgG antibody was used for staining.

[3] = system: MEKK2; experiment: Cellular localization of MEKK2 in Swiss 3T3 cells, antibody staining; type: cell-based; settings: serum starved Swiss 3T3 cells, 10 minutes
Text: as §1

[4] = system: L929 fibroblasts; experiment: TNF-induced apoptosis in L929 fibroblasts with Lac Switch MEKK1COOH expression; type: cell-based, murine
Text: In L929 cells expressing the MEKK1COOH domain, exposure to TNF and IPTG increased the percentage of apoptotic cells to 40%, approximately a 2-fold increase.

| Substance | time required to induce a similar level of L929 cell death ([1]; 1 ng/ml TNFα) | L929 cells being apoptotic ([1]; 10 ng/ml TNFα, 15 hr) | cellular localization of MEKK1 [2] | cellular localization of MEKK2 [3] | percentage of apoptotic cells, control L929 cells ([4]; TNF exposure, presence or absence of IPTG) | level of apoptotic cells, L929 cells expressing the kinase inactive mutant ([4]; exposure to TNF) | increase of percentage of apoptotic cells, MEKK1COOH cells versus control ([4]; exposure to TNF and IPTG) | percentage of apoptotic cells, L929 cells expressing the MEKK1COOH domain ([4]; exposure to TNF and IPTG) | effect on TNFα-mediated cell death ([1]; L929 cells) | cell number in the absence of TNFα ([1]; bFGF alone) |
| --- | --- | --- | --- | --- | --- | --- | --- | --- | --- | --- |
| TNFα | 24 to 48 h | greater than 40% | had no effect on the cellular localization of MEKK1 | induced a translocation of MEKK2 to the plasma membrane | approximately 20% | did not increase the level of apoptotic cells above levels seen in controls | ~2 fold | 40% | – | – |
| bFGF: recombinant human bFGF (147aa), basic fibroblast growth factor | – | – | – | – | – | – | – | – | effective at blocking | did not measurably increase cell number |
